We go through four molecules from ChEMBL document CHEMBL1141723, “Specific targeting of metzincin family members with small-molecule inhibitors: progress toward a multifarious challenge” (Bioorg Med Chem, 2008).

Assay [1] addresses Matrix metalloproteinase-14 (Homo sapiens, UniProt P50281). The experiment in a line: Inhibition of MMP14.
The target in assay [2] is Neprilysin (Homo sapiens, UniProt P08473). Briefly: Inhibition of NEP.
Assay [3] deals with Neutrophil collagenase (Homo sapiens, UniProt P22894). Briefly: Inhibition of MMP8.
In assay [4] the target is Matrix metalloproteinase-9 (Homo sapiens, UniProt P14780). Briefly: Inhibition of MMP9.
Assay [5] concerns the target Macrophage metalloelastase (Homo sapiens, UniProt P39900). Briefly: Inhibition of MMP12.
Assay [6] concerns the target T1, Interstitial collagenase (Homo sapiens, UniProt P03956).
T1 sequence (P03956 whole entry): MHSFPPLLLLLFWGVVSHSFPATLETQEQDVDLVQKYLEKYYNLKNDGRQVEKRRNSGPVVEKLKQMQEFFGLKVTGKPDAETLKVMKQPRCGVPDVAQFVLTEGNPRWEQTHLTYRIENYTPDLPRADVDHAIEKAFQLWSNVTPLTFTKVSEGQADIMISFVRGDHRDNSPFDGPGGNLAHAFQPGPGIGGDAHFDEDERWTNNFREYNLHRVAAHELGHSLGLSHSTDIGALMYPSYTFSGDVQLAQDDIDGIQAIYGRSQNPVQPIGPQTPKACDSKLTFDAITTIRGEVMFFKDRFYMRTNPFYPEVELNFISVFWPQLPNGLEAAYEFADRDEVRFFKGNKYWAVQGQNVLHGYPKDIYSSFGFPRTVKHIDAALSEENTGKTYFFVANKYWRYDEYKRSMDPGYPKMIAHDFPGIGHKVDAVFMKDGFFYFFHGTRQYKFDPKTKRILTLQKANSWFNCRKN

Assay [7] deals with Stromelysin-3 (Homo sapiens, UniProt P24347). Briefly: Inhibition of MMP11.
The target of assay [8] is Angiotensin-converting enzyme (Homo sapiens, UniProt P12821). The experiment in a line: Inhibition of ACE.
The target of assay [9] is Stromelysin-1 (Homo sapiens, UniProt P08254).
For assay [10], the target named is T2, Matrilysin (Homo sapiens, UniProt P09237).
T2 sequence (P09237 whole entry): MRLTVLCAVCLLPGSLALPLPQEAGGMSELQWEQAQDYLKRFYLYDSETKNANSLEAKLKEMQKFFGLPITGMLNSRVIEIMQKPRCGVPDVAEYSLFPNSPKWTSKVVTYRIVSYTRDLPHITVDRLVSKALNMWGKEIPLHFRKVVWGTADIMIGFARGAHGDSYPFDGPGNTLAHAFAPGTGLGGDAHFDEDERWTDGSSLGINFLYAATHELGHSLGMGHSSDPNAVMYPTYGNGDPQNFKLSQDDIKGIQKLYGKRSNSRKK

The target in assay [11] is 72 kDa type IV collagenase (Homo sapiens, UniProt P08253).
Assay [12] deals with Collagenase 3 (Homo sapiens, UniProt P45452). Briefly: Inhibition of MMP13.
Assay [13] has as its target Disintegrin and metalloproteinase domain-containing protein 17 (Homo sapiens, UniProt P78536). The experiment in a line: Inhibition of TACE.
Assay [14] addresses Bone morphogenetic protein 1 (Homo sapiens, UniProt P13497). The experiment in a line: Inhibition of BMP1.
Assay [15] deals with Disintegrin and metalloproteinase domain-containing protein 9 (Homo sapiens, UniProt Q13443).
The target of assay [16] is Disintegrin and metalloproteinase domain-containing protein 33 (Homo sapiens, UniProt Q9BZ11). Briefly: Inhibition of ADAM33.
Assay [17] in a line: tissue or blood.

Sequence of Stromelysin-1 (P08254 whole entry): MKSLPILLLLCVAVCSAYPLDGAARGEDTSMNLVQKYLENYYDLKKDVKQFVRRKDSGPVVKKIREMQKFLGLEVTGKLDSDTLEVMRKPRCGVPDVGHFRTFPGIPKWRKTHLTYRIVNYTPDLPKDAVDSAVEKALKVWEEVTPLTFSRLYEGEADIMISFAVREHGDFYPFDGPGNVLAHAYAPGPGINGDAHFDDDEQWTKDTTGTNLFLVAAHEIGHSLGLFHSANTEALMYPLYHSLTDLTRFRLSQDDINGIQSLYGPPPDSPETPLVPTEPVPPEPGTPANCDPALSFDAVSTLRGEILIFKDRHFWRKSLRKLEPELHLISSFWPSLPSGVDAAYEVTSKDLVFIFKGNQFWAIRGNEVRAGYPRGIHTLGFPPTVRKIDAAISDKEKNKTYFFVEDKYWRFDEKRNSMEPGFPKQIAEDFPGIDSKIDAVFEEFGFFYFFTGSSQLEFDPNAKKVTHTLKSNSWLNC
Sequence of Matrix metalloproteinase-9 (P14780 whole entry): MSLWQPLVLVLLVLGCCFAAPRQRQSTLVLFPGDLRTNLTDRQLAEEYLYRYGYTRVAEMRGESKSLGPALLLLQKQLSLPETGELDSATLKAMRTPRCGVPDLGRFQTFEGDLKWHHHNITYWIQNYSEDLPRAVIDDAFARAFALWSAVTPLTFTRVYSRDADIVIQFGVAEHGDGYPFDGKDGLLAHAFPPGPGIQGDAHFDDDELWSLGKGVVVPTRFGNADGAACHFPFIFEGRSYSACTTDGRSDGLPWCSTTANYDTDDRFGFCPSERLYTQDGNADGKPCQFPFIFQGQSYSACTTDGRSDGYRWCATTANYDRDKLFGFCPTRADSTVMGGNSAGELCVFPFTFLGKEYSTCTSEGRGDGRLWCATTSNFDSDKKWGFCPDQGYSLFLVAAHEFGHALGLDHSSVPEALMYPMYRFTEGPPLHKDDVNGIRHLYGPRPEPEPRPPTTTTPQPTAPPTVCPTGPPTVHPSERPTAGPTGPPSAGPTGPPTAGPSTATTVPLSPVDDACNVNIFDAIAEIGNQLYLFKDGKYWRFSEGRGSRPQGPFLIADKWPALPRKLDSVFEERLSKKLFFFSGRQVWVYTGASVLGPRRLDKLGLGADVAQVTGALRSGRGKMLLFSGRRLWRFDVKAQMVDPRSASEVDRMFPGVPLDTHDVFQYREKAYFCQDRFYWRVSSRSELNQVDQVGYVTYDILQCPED
Sequence of Disintegrin and metalloproteinase domain-containing protein 33 (Q9BZ11 whole entry, the tested form may be a part): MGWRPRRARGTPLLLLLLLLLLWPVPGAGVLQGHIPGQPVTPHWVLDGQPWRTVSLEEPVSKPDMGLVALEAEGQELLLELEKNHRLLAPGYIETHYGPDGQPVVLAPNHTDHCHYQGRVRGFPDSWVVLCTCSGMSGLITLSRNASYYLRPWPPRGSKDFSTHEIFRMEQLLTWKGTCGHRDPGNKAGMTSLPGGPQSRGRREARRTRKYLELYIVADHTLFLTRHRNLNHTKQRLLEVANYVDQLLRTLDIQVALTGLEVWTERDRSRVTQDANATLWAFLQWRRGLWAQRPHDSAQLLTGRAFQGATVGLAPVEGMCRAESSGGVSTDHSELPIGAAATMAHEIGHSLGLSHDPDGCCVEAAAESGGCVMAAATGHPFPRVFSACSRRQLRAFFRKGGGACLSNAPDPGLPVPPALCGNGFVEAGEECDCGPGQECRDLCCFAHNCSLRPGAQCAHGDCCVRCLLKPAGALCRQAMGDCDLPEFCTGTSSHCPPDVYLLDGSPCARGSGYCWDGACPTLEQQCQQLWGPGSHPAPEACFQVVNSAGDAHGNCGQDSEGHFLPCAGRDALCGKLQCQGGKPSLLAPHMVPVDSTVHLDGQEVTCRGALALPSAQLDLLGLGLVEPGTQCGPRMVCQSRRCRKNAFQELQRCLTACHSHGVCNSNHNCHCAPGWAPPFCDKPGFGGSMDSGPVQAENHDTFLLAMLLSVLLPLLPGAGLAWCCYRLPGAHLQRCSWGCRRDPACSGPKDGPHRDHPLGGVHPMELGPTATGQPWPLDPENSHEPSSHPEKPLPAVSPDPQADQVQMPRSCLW
Sequence of 72 kDa type IV collagenase (P08253 whole entry): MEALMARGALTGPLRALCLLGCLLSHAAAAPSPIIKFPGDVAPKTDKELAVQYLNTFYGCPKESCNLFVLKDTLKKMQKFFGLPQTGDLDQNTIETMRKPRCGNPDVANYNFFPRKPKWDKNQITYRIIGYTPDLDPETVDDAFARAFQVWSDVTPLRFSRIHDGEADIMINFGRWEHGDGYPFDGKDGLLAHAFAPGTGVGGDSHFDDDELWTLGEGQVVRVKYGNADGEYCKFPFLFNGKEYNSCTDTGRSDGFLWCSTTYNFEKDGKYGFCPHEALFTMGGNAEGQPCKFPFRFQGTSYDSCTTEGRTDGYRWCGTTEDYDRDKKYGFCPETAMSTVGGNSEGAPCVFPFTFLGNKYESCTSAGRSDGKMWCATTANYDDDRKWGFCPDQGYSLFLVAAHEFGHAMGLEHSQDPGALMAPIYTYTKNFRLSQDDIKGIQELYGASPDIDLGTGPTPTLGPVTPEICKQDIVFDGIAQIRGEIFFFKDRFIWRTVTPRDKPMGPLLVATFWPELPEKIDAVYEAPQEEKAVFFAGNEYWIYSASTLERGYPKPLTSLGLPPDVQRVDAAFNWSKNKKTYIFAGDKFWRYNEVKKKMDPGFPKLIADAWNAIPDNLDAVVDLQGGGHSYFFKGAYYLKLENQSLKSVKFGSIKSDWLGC
Sequence of Bone morphogenetic protein 1 (P13497 whole entry, the tested form may be a part): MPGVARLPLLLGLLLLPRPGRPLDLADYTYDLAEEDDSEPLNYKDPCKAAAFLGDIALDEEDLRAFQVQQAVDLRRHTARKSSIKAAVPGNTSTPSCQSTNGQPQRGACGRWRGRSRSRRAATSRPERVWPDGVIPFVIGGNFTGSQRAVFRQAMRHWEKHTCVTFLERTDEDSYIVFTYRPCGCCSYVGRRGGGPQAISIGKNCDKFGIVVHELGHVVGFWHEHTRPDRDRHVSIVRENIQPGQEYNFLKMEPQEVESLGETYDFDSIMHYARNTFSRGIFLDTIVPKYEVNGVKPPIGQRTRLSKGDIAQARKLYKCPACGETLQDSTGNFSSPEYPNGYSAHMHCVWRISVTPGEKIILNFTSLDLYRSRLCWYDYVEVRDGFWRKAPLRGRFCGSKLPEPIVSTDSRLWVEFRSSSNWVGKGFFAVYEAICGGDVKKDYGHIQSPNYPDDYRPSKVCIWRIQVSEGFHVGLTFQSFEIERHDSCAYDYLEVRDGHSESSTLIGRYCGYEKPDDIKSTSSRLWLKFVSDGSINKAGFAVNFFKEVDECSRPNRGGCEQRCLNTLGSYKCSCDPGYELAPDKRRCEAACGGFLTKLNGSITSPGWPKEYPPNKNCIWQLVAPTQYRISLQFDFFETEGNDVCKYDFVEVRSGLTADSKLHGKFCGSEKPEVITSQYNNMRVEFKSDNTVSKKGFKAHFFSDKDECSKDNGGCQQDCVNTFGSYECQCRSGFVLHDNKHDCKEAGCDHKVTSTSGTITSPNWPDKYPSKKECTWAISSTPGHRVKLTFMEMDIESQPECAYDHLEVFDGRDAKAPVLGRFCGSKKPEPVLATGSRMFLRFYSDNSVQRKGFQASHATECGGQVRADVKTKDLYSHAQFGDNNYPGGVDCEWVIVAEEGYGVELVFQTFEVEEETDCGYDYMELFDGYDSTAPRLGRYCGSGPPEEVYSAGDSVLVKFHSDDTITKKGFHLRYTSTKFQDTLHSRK
Sequence of Stromelysin-3 (P24347 whole entry): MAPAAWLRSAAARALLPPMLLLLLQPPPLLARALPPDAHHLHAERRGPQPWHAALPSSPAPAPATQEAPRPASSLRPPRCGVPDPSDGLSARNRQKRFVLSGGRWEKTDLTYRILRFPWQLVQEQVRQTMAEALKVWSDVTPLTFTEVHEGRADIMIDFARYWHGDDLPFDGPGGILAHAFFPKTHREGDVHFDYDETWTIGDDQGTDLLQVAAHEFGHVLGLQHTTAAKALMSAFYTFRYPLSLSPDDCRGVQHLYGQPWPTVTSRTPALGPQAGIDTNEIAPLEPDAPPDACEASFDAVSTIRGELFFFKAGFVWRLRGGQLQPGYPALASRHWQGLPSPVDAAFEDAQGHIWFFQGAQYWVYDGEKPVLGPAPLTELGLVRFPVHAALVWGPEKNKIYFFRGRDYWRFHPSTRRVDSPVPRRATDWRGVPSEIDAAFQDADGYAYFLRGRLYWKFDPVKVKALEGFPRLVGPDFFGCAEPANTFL
Sequence of Disintegrin and metalloproteinase domain-containing protein 17 (P78536 whole entry, the tested form may be a part): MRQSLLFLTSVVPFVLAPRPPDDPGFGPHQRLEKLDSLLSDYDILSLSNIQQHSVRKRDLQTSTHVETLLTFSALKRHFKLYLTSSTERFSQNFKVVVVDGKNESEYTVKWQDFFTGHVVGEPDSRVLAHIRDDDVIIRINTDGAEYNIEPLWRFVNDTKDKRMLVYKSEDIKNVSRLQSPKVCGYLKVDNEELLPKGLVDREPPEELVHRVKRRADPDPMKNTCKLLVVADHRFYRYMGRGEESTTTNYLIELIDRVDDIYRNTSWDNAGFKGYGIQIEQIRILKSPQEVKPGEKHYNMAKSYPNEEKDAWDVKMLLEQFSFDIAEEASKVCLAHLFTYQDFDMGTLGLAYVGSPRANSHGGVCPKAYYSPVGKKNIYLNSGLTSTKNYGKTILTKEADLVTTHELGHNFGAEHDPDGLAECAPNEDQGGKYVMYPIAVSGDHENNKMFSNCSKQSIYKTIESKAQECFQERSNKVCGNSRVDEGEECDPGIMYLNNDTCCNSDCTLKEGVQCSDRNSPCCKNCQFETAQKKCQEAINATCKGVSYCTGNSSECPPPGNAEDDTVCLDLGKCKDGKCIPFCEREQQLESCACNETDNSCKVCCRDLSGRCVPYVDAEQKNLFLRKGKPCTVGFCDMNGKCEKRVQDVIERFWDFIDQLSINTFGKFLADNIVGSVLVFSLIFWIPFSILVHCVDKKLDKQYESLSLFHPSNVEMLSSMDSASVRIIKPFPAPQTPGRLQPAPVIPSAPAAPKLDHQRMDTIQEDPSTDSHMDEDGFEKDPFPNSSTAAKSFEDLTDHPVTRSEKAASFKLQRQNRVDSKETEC

In general, Ki refers to the equilibrium dissociation constant of an inhibitor or competing ligand from its target. A lower Ki goes with tighter binding. As to `NC(=O)[C@H](CCC(=O)O)NC(=O)[C@H](CCC(=O)O)NC(=O)[C@H](Cc1cc(-c2ccc(-c3cccc(Cl)c3)cc2)no1)CP(=O)(O)c1ccc(Br)cc1`, the Ki was 140 nM in assay [1]; more than 100000 nM in assay [2]; 271 nM in assay [3]; 1260 nM in assay [4]; 0.19 nM in assay [5]; 67000 nM in assay [6]. Also, the Ki in [7] was 18400 nM; in assay [8], more than 100000 nM; in [9], 40 nM; in [10] it was 626 nM; in assay [11], 192 nM; in [12], 49 nM. The molecule also came in with a Ki in assay [13] of more than 100000 nM.
For `CS(=O)(=O)NCc1noc([C@H](CCCC2CCCCC2)CC(=O)NO)n1`, the Ki in assay [1] was more than 100000 nM; in assay [14], 11 nM; in assay [4], more than 100000 nM; in assay [6], 1 nM; in [9], more than 100000 nM; in assay [12] it was 91000 nM.
The IC50 is the concentration at which inhibition is half-maximal. In the case of `COC(=O)N1CC2(CC2)C[C@H](C(=O)NO)[C@H]1C(=O)N1CC=C(c2ccccc2)CC1`, the concentration for half-maximal inhibition (IC50) in assay [15] is more than 5000 nM; in assay [4], 304 nM; in assay [6], more than 5000 nM; in assay [9], 3560 nM; in [10] it was more than 5000 nM; in [11], 35 nM. The molecule also had an IC50 in [16] of 1030 nM.
The molecule `Cc1cc(COc2ccc([C@]3(C)CCN([C@H](C)C(=O)NO)C3=O)cc2)c2ccccc2n1` came in with a Ki in assay [16] of 15 nM. Further, the IC50 in [17] was determined as 0.35 nM.
